Experimental data: PubChem BioAssay (NCI)
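Cultured in 96-well plates, cells were exposed to test compound for 48 hours across five concentrations. Definition used: TGI = concentration required for complete inhibition of growth.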

Legend:
Test in all cases: DTP human tumour cell line panel, 48 h
UO-31 renal = test system: UO-31 renal
OVCAR-4 ovarian = test system: OVCAR-4 ovarian
MOLT-4 leukemia = test system: MOLT-4 leukemia
M14 melanoma = test system: M14 melanoma
OVCAR-8 ovarian = test system: OVCAR-8 ovarian
OVCAR-3 ovarian = test system: OVCAR-3 ovarian
IGROV1 ovarian = test system: IGROV1 ovarian
KM12 colon = test system: KM12 colon
SF-268 CNS = test system: SF-268 CNS
T-47D breast = test system: T-47D breast
NCI-H522 lung = test system: NCI-H522 lung
LOX IMVI melanoma = test system: LOX IMVI melanoma
HT29 colon = test system: HT29 colon
SNB-75 CNS = test system: SNB-75 CNS
MDA-MB-435 = test system: MDA-MB-435
NCI/ADR-RES ovarian = test system: NCI/ADR-RES ovarian
RXF 393 renal = test system: RXF 393 renal
COLO 205 colon = test system: COLO 205 colon
TK-10 renal = test system: TK-10 renal
UACC-257 melanoma = test system: UACC-257 melanoma
HL-60(TB) leukemia = test system: HL-60(TB) leukemia
PC-3 prostate = test system: PC-3 prostate
SK-MEL-5 melanoma = test system: SK-MEL-5 melanoma
BT-549 breast = test system: BT-549 breast
SW-620 colon = test system: SW-620 colon
HCT-116 colon = test system: HCT-116 colon
NCI-H460 lung = test system: NCI-H460 lung
HCT-15 colon = test system: HCT-15 colon
SN12C renal = test system: SN12C renal
OVCAR-5 ovarian = test system: OVCAR-5 ovarian
786-0 renal = test system: 786-0 renal
MCF7 breast = test system: MCF7 breast
SF-539 CNS = test system: SF-539 CNS
HOP-92 NSCLC = test system: HOP-92 NSCLC
EKVX NSCLC = test system: EKVX NSCLC
NCI-H23 lung = test system: NCI-H23 lung
HOP-62 NSCLC = test system: HOP-62 NSCLC
SK-OV-3 ovarian = test system: SK-OV-3 ovarian
SF-295 CNS = test system: SF-295 CNS
K-562 leukemia = test system: K-562 leukemia
MDA-MB-231 breast = test system: MDA-MB-231 breast
SK-MEL-28 melanoma = test system: SK-MEL-28 melanoma
A549 NSCLC = test system: A549 NSCLC
HS 578T breast = test system: HS 578T breast
CCRF-CEM leukemia = test system: CCRF-CEM leukemia
MDA-N = test system: MDA-N
SNB-19 CNS = test system: SNB-19 CNS
UACC-62 melanoma = test system: UACC-62 melanoma
SR leukemia = test system: SR leukemia
CAKI-1 renal = test system: CAKI-1 renal
DU-145 prostate = test system: DU-145 prostate
ACHN renal = test system: ACHN renal
U251 CNS = test system: U251 CNS
NCI-H226 lung = test system: NCI-H226 lung
HCC-2998 colon = test system: HCC-2998 colon
MALME-3M melanoma = test system: MALME-3M melanoma
RPMI-8226 leukemia = test system: RPMI-8226 leukemia
SK-MEL-2 melanoma = test system: SK-MEL-2 melanoma
A498 renal = test system: A498 renal

CC1=C(C(=O)OCc2ccncc2)C(C2=C(C)SCCS2)C(C(=O)OCc2ccncc2)=C(C)N1
TGI (UO-31 renal): 37.9 µM
TGI (OVCAR-4 ovarian): > 100 µM
TGI (MOLT-4 leukemia): 49.2 µM
TGI (M14 melanoma): 71 µM
TGI (OVCAR-8 ovarian): > 100 µM
TGI (OVCAR-3 ovarian): 38.8 µM
TGI (IGROV1 ovarian): > 100 µM
TGI (KM12 colon): 47.5 µM
TGI (SF-268 CNS): > 100 µM
TGI (T-47D breast): 42.8 µM
TGI (NCI-H522 lung): 54 µM
TGI (LOX IMVI melanoma): 35.8 µM
TGI (HT29 colon): 40 µM
TGI (SNB-75 CNS): 66.6 µM
TGI (MDA-MB-435): 38.9 µM
TGI (NCI/ADR-RES ovarian): > 100 µM
TGI (RXF 393 renal): 27.4 µM
TGI (COLO 205 colon): > 100 µM
TGI (TK-10 renal): > 100 µM
TGI (UACC-257 melanoma): 50.1 µM
TGI (HL-60(TB) leukemia): 79.3 µM
TGI (PC-3 prostate): 52.4 µM
TGI (SK-MEL-5 melanoma): 28.6 µM
TGI (BT-549 breast): 42.2 µM
TGI (SW-620 colon): 64.6 µM
TGI (HCT-116 colon): 32.2 µM
TGI (NCI-H460 lung): 73.5 µM
TGI (HCT-15 colon): 64.7 µM
TGI (SN12C renal): 70.6 µM
TGI (OVCAR-5 ovarian): > 100 µM
TGI (786-0 renal): > 100 µM
TGI (MCF7 breast): 52 µM
TGI (SF-539 CNS): 33 µM
TGI (HOP-92 NSCLC): 31.5 µM
TGI (EKVX NSCLC): > 100 µM
TGI (NCI-H23 lung): 76.5 µM
TGI (HOP-62 NSCLC): 58.6 µM
TGI (SK-OV-3 ovarian): 88 µM
TGI (SF-295 CNS): 38 µM
TGI (K-562 leukemia): 59.2 µM
TGI (MDA-MB-231 breast): 91.9 µM
TGI (SK-MEL-28 melanoma): 34 µM
TGI (A549 NSCLC): > 100 µM
TGI (HS 578T breast): 58.3 µM
TGI (CCRF-CEM leukemia): 59.8 µM
TGI (MDA-N): 72.8 µM
TGI (SNB-19 CNS): 87.5 µM
TGI (UACC-62 melanoma): 73.6 µM
TGI (SR leukemia): > 100 µM
TGI (CAKI-1 renal): > 100 µM
TGI (DU-145 prostate): > 100 µM
TGI (ACHN renal): > 100 µM
TGI (U251 CNS): 33.2 µM
TGI (NCI-H226 lung): 42.7 µM

O=C1c2scc(-c3ccccc3)c2-n2cccc21
TGI (UO-31 renal): > 100 µM
TGI (OVCAR-4 ovarian): > 100 µM
TGI (MOLT-4 leukemia): 37.9 µM
TGI (M14 melanoma): 33.3 µM
TGI (OVCAR-8 ovarian): 27.4 µM
TGI (OVCAR-3 ovarian): 38.1 µM
TGI (HCC-2998 colon): 59.5 µM
TGI (IGROV1 ovarian): 17.7 µM
TGI (KM12 colon): 27.3 µM
TGI (SF-268 CNS): 30.3 µM
TGI (T-47D breast): 80.9 µM
TGI (NCI-H522 lung): 25.2 µM
TGI (LOX IMVI melanoma): 27.9 µM
TGI (HT29 colon): 25.3 µM
TGI (MALME-3M melanoma): 30.7 µM
TGI (SNB-75 CNS): 27.2 µM
TGI (MDA-MB-435): 29 µM
TGI (NCI/ADR-RES ovarian): 35.4 µM
TGI (RXF 393 renal): 29.9 µM
TGI (COLO 205 colon): 31.7 µM
TGI (TK-10 renal): > 100 µM
TGI (UACC-257 melanoma): > 100 µM
TGI (PC-3 prostate): 41.2 µM
TGI (SK-MEL-5 melanoma): 30 µM
TGI (RPMI-8226 leukemia): 34.1 µM
TGI (BT-549 breast): > 100 µM
TGI (SW-620 colon): 34.1 µM
TGI (HCT-116 colon): 26.2 µM
TGI (NCI-H460 lung): > 100 µM
TGI (HCT-15 colon): > 100 µM
TGI (SK-MEL-2 melanoma): 30.7 µM
TGI (SN12C renal): 74.8 µM
TGI (OVCAR-5 ovarian): 48 µM
TGI (786-0 renal): 28 µM
TGI (MCF7 breast): 52.9 µM
TGI (EKVX NSCLC): 25.4 µM
TGI (A498 renal): 5.02 µM
TGI (HOP-62 NSCLC): 38.1 µM
TGI (SK-OV-3 ovarian): 44.7 µM
TGI (SF-295 CNS): 36 µM
TGI (MDA-MB-231 breast): 31.4 µM
TGI (SK-MEL-28 melanoma): 28.8 µM
TGI (A549 NSCLC): 42.6 µM
TGI (HS 578T breast): 24 µM
TGI (CCRF-CEM leukemia): 60.8 µM
TGI (MDA-N): 50 µM
TGI (SNB-19 CNS): 42 µM
TGI (UACC-62 melanoma): 55.6 µM
TGI (SR leukemia): 47.2 µM
TGI (CAKI-1 renal): 31.9 µM
TGI (DU-145 prostate): > 100 µM
TGI (ACHN renal): > 100 µM
TGI (U251 CNS): 27.7 µM
TGI (NCI-H226 lung): 25 µM
